One assay has as its target TIP60-KAT5 (Homo sapiens, UniProt Q92993). As to the kind of experiment: Acetyltransferase biochemical assay (AlphaScreen), KAT5. In general terms: Bead proximity is the source of the signal in Alpha formats.
The target of a further assay is HBO-KAT7 (Homo sapiens, UniProt O95251). Kind of assay: Acetyltransferase biochemical assay (AlphaScreen), KAT7.
Another assay addresses MOZ-KAT6A (Homo sapiens, UniProt Q92794, A567V). Kind of assay: Acetyltransferase biochemical assay (AlphaScreen), KAT6A.

Where a name gives a salt, the structure may show the parent alone. Where only a bound is given, the exact number is not on record here.

Our source for the IC50 values is patent US12365655B2, “Compounds” (CTXT PTY LTD, priority 2018, dated 2025).

Sequence of TIP60-KAT5 (Q92993 with tags, fused parts or gaps isoform Q92993-2): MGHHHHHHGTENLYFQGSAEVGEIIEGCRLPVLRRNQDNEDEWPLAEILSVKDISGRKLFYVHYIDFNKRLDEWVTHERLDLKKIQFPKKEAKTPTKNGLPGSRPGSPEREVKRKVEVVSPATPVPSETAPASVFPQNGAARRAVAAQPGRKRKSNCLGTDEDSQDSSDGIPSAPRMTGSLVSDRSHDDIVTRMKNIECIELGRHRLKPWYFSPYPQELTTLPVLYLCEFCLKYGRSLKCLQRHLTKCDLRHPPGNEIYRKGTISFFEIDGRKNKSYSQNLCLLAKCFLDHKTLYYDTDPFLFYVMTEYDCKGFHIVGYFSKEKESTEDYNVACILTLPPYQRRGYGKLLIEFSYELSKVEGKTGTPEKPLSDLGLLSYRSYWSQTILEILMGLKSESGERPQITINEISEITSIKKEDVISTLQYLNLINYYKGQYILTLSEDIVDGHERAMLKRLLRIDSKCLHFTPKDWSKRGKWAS
Sequence of MOZ-KAT6A (Q92794 with tags, fused parts or gaps A567V): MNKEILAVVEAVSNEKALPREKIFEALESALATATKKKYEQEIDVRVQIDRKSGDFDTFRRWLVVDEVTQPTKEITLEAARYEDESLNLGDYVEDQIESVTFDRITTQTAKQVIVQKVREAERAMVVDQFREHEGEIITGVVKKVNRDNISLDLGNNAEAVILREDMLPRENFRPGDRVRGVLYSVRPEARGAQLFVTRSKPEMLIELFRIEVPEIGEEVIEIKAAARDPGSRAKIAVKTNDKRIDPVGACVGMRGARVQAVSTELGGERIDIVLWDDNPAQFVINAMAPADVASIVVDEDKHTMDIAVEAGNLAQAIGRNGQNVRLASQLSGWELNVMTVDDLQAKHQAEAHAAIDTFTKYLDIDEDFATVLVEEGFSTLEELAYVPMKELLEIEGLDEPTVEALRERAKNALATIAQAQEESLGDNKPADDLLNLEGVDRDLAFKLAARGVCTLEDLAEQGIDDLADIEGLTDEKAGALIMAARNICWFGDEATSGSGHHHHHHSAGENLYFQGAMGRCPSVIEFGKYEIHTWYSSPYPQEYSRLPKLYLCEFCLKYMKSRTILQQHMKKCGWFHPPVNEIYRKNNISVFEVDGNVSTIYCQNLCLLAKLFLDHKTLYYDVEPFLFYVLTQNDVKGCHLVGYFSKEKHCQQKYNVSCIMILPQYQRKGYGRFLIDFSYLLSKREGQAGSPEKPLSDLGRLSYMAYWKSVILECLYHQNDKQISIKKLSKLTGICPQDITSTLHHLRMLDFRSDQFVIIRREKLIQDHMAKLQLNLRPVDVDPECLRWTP
Sequence of HBO-KAT7 (O95251 with tags, fused parts or gaps): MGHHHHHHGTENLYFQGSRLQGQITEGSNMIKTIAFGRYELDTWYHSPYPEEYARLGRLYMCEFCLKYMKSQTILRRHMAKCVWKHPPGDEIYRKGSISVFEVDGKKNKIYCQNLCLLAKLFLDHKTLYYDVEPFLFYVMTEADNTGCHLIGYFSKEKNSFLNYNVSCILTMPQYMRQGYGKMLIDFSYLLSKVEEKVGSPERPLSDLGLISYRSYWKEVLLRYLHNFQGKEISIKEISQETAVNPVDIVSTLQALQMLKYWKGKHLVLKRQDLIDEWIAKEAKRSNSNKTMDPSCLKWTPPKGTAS

A word on the IC50: it is the concentration that gives 50% inhibition. On to `CCc1ccc(OC)c(S(=O)(=O)Nc2noc3c(C4CC4)cccc23)c1` [Example 189], for which the IC50 on TIP60-KAT5 worked out at 32 µM; against HBO-KAT7 it was 8.02 µM; on MOZ-KAT6A, 4.35 µM.

In the case of `CCc1ccc(OC)c(S(=O)(=O)Nc2noc3c(C4CCCCC4)cccc23)c1` [Example 190], the IC50 is 19.9 µM at TIP60-KAT5, 18.5 µM on HBO-KAT7 and 9.73 µM on MOZ-KAT6A.

Regarding `CCc1ccc(OC)c(S(=O)(=O)Nc2noc3c(-c4cncnc4)cccc23)c1` [Example 192, 5-Ethyl-2-methoxy-N-(7-(pyrimidin-5-yl)benzo[d]isoxazol-3-yl)benzenesulfonamide], the IC50 stood at 29.9 µM against TIP60-KAT5, 24.2 µM on HBO-KAT7 and 9.39 µM at MOZ-KAT6A.

Turning to `CCc1ccc(OC)c(S(=O)(=O)Nc2noc3cc(C)ccc23)c1` [Example 193, 5-Ethyl-2-methoxy-N-(6-methylbenzo[d]isoxazol-3-yl)benzenesulfonamide], the IC50 on TIP60-KAT5 is 53.1 µM; on HBO-KAT7, 15.5 µM; against MOZ-KAT6A it was 1.95 µM.

As for `CCc1ccc(OC)c(S(=O)(=O)Nc2noc3cc(CC)ccc23)c1` [Example 194], the IC50 is 37.8 µM against TIP60-KAT5, 6.87 µM at HBO-KAT7 and 1.51 µM against MOZ-KAT6A.

As to `CCc1ccc(OC)c(S(=O)(=O)Nc2noc3cc(C4CC4)ccc23)c1` [Example 195], the results for the IC50 against TIP60-KAT5, against HBO-KAT7 and on MOZ-KAT6A were 16.7 µM, 4.96 µM and 1.32 µM, respectively.

With `CCc1ccc(OC)c(S(=O)(=O)Nc2noc3cc(-c4cnn(C)c4)ccc23)c1` [Example 196, 5-Ethyl-2-methoxy-N-(6-(1-methyl-1H-pyrazol-4-yl)benzo[d]isoxazol-3-yl)benzenesulfonamide], the IC50 on TIP60-KAT5 amounted to 95.4 µM; against HBO-KAT7, 23.3 µM; against MOZ-KAT6A it was 13.9 µM.

`CCc1ccc(OC)c(S(=O)(=O)Nc2noc3cc(-c4cncnc4)ccc23)c1` [Example 197, 5-Ethyl-2-methoxy-N-(6-(pyrimidin-5-yl)benzo[d]isoxazol-3-yl)benzenesulfonamide]: the IC50 is over 125 µM against TIP60-KAT5, 45.7 µM on HBO-KAT7 and 21 µM against MOZ-KAT6A.

`CCc1ccc(OC)c(S(=O)(=O)Nc2noc3cccc(C)c23)c1` [Example 198, 5-Ethyl-2-methoxy-N-(4-methylbenzo[d]isoxazol-3-yl)benzenesulfonamide]: the IC50 at TIP60-KAT5 was found to be 73.7 µM; at HBO-KAT7, 6.95 µM; on MOZ-KAT6A it was 2.82 µM.

Turning to `CCc1ccc(OC)c(S(=O)(=O)Nc2noc3cccc(CC)c23)c1` [Example 199], the IC50 amounted to 14.9 µM on TIP60-KAT5, 0.632 µM against HBO-KAT7 and 0.709 µM at MOZ-KAT6A.

As for `CCc1ccc(OC)c(S(=O)(=O)Nc2noc3cccc(C4CC4)c23)c1` [Example 200], the IC50 was found to be 4.73 µM on TIP60-KAT5, 0.678 µM against HBO-KAT7 and 0.364 µM against MOZ-KAT6A.

For the compound `CCc1ccc(OC)c(S(=O)(=O)Nc2noc3cccc(C4CCCCC4)c23)c1` [Example 201], the IC50 against TIP60-KAT5 is 21.8 µM; at HBO-KAT7, 0.773 µM; against MOZ-KAT6A, 1.48 µM.

With `CCc1ccc(OC)c(S(=O)(=O)Nc2noc3cccc(-c4cnn(C)c4)c23)c1` [Example 202, 5-Ethyl-2-methoxy-N-(4-(1-methyl-1H-pyrazol-4-yl)benzo[d]isoxazol-3-yl)benzenesulfonamide], the figures for the IC50 against TIP60-KAT5, against HBO-KAT7 and on MOZ-KAT6A were 111 µM, 54.4 µM and 18.9 µM, respectively.

As to `CCc1ccc(OC)c(S(=O)(=O)Nc2noc3cccc(-c4cncnc4)c23)c1` [Example 203, 5-Ethyl-2-methoxy-N-(4-(pyrimidin-5-yl)benzo[d]isoxazol-3-yl)benzenesulfonamide], the results for the IC50 against TIP60-KAT5, at HBO-KAT7 and on MOZ-KAT6A were 74.3 µM, 23.4 µM and 22.6 µM, respectively.

`CCc1ccc(OC)c(S(=O)(=O)Nc2noc3ccc(CC)c(Cl)c23)c1` [Example 206]: the IC50 against TIP60-KAT5 is 6.36 µM; at HBO-KAT7 it was 0.626 µM; against MOZ-KAT6A, 0.302 µM.

Take `CCc1ccc(OC)c(S(=O)(=O)Nc2noc3ccc(C4CC4)c(OC)c23)c1` [Example 208]: the results for the IC50 at TIP60-KAT5, on HBO-KAT7 and at MOZ-KAT6A were 28.5 µM, 4.65 µM and 1.63 µM, respectively.

In the case of `COc1cc(CO)cc(OC)c1S(=O)(=O)Nc1noc2cccc(OC)c12` [Example 209, 4-(Hydroxymethyl)-2,6-dimethoxy-N-(4-methoxybenzo[d]isoxazol-3-yl)benzenesulfonamide], the IC50 against TIP60-KAT5 was 28.7 µM; at HBO-KAT7 it was 1.05 µM; against MOZ-KAT6A, 2.03 µM.

Turning to `COc1cc(CN)cc(OC)c1S(=O)(=O)Nc1noc2cccc(OC)c12` [Example 210, 4-(Aminomethyl)-2,6-dimethoxy-N-(4-methoxybenzo[d]isoxazol-3-yl)benzenesulfonamide hydrochloride], the IC50 against TIP60-KAT5 is over 125 µM; at HBO-KAT7, 6.54 µM; against MOZ-KAT6A it was 8.53 µM.

Take `COc1cccc(O)c1S(=O)(=O)Nc1noc2cccc(OC)c12` [Example 213, 2-Hydroxy-6-methoxy-N-(4-methoxybenzo[d]isoxazol-3-yl)benzenesulfonamide]: the values for the IC50 against TIP60-KAT5, against HBO-KAT7 and against MOZ-KAT6A were over 125 µM, 20.5 µM and 8.28 µM, respectively.

Regarding `COc1cccc(OCC2CC2)c1S(=O)(=O)Nc1noc2cccc(OC)c12` [Example 215, 2-(Cyclopropylmethoxy)-6-methoxy-N-(4-methoxybenzo[d]isoxazol-3-yl)benzenesulfonamide], the IC50 against TIP60-KAT5 is over 125 µM; against HBO-KAT7, 16.6 µM; against MOZ-KAT6A it was 4.47 µM.

In the case of `COc1cccc(OC(C)C)c1S(=O)(=O)Nc1noc2cccc(OC)c12` [Example 217, 2-Isopropoxy-6-methoxy-N-(4-methoxybenzo[d]isoxazol-3-yl)benzenesulfonamide], the values for the half-maximal inhibitory concentration (IC50) at TIP60-KAT5, at HBO-KAT7 and against MOZ-KAT6A were over 125 µM, 18.4 µM and 10.2 µM, respectively.

As for `COc1cccc(OCCO)c1S(=O)(=O)Nc1noc2cccc(OC)c12` [Example 220, 2-(2-Hydroxyethoxy)-6-methoxy-N-(4-methoxybenzo[d]isoxazol-3-yl)benzenesulfonamide], the figures for the IC50 at TIP60-KAT5, at HBO-KAT7 and against MOZ-KAT6A were over 125 µM, 11 µM and 3.5 µM, respectively.

Take `COc1cccc(OCc2ccccc2)c1S(=O)(=O)Nc1noc2cccc(OC)c12` [Example 222, 2-(Benzyloxy)-6-methoxy-N-(4-methoxybenzo[d]isoxazol-3-yl)benzenesulfonamide]: the IC50 against TIP60-KAT5 worked out at 26.8 µM; against HBO-KAT7, 1.42 µM; against MOZ-KAT6A, 0.655 µM.

As to `CCc1ccc(OC)c(S(=O)(=O)Nc2noc3ccc(Cn4cccn4)cc23)c1` [Example 225], the IC50 is over 125 µM against TIP60-KAT5, 31.1 µM at HBO-KAT7 and 3.62 µM at MOZ-KAT6A.

On to `CCc1ccc(OC)c(S(=O)(=O)Nc2noc3ccc(CN)cc23)c1` [Example 226], for which the IC50 at TIP60-KAT5 stood at 80.3 µM; against HBO-KAT7, 38 µM; at MOZ-KAT6A, 10.8 µM.

For the compound `CCc1ccc(OC)c(S(=O)(=O)Nc2noc3ccc(CNC(=O)OC)cc23)c1` [Example 227, Methyl ((3-((5-ethyl-2-methoxyphenyl)sulfonamido)benzo[d]isoxazol-5-yl)methyl) carbamate], the IC50 is over 125 µM against TIP60-KAT5, 63.1 µM on HBO-KAT7 and 41.5 µM against MOZ-KAT6A.

For `CCc1ccc(OC)c(S(=O)(=O)Nc2noc3ccc(CNC(C)=O)cc23)c1` [Example 228, N-((3-((5-Ethyl-2-methoxyphenyl)sulfonamido)benzo[d]isoxazol-5-yl)methyl)acetamide], the values for the IC50 against TIP60-KAT5, against HBO-KAT7 and at MOZ-KAT6A were 124 µM, over 125 µM and 75.2 µM, respectively.

Regarding `CCc1ccc(OC)c(S(=O)(=O)Nc2noc3ccc(CO)cc23)c1` [Example 229], the IC50 was over 125 µM at TIP60-KAT5, 115 µM at HBO-KAT7 and 85 µM against MOZ-KAT6A.

Take `CCc1ccc(OC)c(S(=O)(=O)Nc2noc3ccc(C(=O)NC)cc23)c1` [Example 230, 3-((5-Ethyl-2-methoxyphenyl)sulfonamido)-N-methylbenzo[d]isoxazole-5-carboxamide]: the IC50 against TIP60-KAT5 was over 125 µM; against HBO-KAT7, 109 µM; against MOZ-KAT6A it was 48.1 µM.

For `CCc1ccc(OC)c(S(=O)(=O)Nc2noc3ccc(C(=O)N(C)C)cc23)c1` [Example 231, 3-((5-Ethyl-2-methoxyphenyl)sulfonamido)-N,N-dimethylbenzo[d]isoxazole-5-carboxamide], the IC50 was over 125 µM against TIP60-KAT5, over 125 µM at HBO-KAT7 and 59 µM at MOZ-KAT6A.

Take `CCc1ccc(OC)c(S(=O)(=O)Nc2noc3ccc(C(N)=O)cc23)c1` [Example 232, 3-((5-Ethyl-2-methoxyphenyl)sulfonamido)benzo[d]isoxazole-5-carboxamide]: the IC50 at TIP60-KAT5 is over 125 µM; on HBO-KAT7, over 125 µM; on MOZ-KAT6A it was 46.5 µM.

Take `CCc1ccc(OC)c(S(=O)(=O)Nc2noc3ccc(C#N)cc23)c1` [Example 233]: the IC50 on TIP60-KAT5 was over 125 µM; at HBO-KAT7 it was 17.9 µM; against MOZ-KAT6A it was 9.95 µM.

`CCc1ccc(OC)c(S(=O)(=O)Nc2noc3ccc(CC)cc23)c1` [Example 235]: the IC50 was 9.04 µM at TIP60-KAT5, 0.82 µM on HBO-KAT7 and 0.395 µM against MOZ-KAT6A.

In the case of `CCc1ccc(OC)c(S(=O)(=O)Nc2noc3ccc(-c4cnn(C)c4)cc23)c1` [Example 237, 5-Ethyl-2-methoxy-N-(5-(1-methyl-1H-pyrazol-4-yl)benzo[d]isoxazol-3-yl)benzenesulfonamide], the values for the IC50 against TIP60-KAT5, against HBO-KAT7 and against MOZ-KAT6A were over 125 µM, 18 µM and 4.95 µM, respectively.

For the compound `CCc1ccc(OC)c(S(=O)(=O)Nc2noc3ccc(-c4cncnc4)cc23)c1` [Example 238, 5-Ethyl-2-methoxy-N-(5-(pyrimidin-5-yl)benzo[d]isoxazol-3-yl)benzenesulfonamide], the IC50 on TIP60-KAT5 is over 125 µM; on HBO-KAT7, 94.2 µM; at MOZ-KAT6A it was 12 µM.

Take `COc1cccc(OC)c1S(=O)(=O)Nc1noc2c(Br)cc(C)cc12` [Example 239]: the IC50 on TIP60-KAT5 was determined as 17.4 µM; on HBO-KAT7 it was 3 µM; against MOZ-KAT6A it was 2.13 µM.
